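Test compounds were applied to cells in 96-well plates for 48 hours at 5 doses. At the GI50, growth is halved.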 Activity calls are given as the source filed them. Cut-off read from the data, not from the text of the source: active = GI50 up to about 1.1 µM and inactive = higher.
Key:
Assay in all cases: NCI anticancer screen, dose series, 48 h
[1] = tested on: MCF7
[2] = tested on: LOX IMVI
[3] = tested on: Malme-3M
[4] = tested on: SK-MEL-5
[5] = tested on: DU-145
[6] = tested on: RXF 393
[7] = tested on: K562
[8] = tested on: NCI-H522
[9] = tested on: NCI-H226
[10] = tested on: HCT-15
[11] = tested on: OVCAR-5
[12] = tested on: HCT-116
[13] = tested on: COLO 205
[14] = tested on: KM12
[15] = tested on: OVCAR-4
[16] = tested on: CCRF-CEM
[17] = tested on: NCI-H23
[18] = tested on: UACC-62
[19] = tested on: IGROV-1
[20] = tested on: SW-620
[21] = tested on: CAKI-1
[22] = tested on: SK-MEL-28
[23] = tested on: SF-539
[24] = tested on: A549
[25] = tested on: RPMI-8226
[26] = tested on: PC-3
[27] = tested on: TK-10
[28] = tested on: UACC-257
[29] = tested on: NCI/ADR-RES
[30] = tested on: SK-OV-3
[31] = tested on: OVCAR-3
[32] = tested on: HOP-62
[33] = tested on: HT-29
[34] = tested on: MDA-N
[35] = tested on: 786-0
[36] = tested on: MOLT-4
[37] = tested on: MDA-MB-231
[38] = tested on: U-251
[39] = tested on: SF-295
[40] = tested on: HL-60
[41] = tested on: T47D
[42] = tested on: ACHN
[43] = tested on: NCI-H460
[44] = tested on: HOP-92
[45] = tested on: OVCAR-8
[46] = tested on: Hs-578T
[47] = tested on: SR
[48] = tested on: EKVX
[49] = tested on: BT-549
[50] = tested on: SNB-19
[51] = tested on: A498
[52] = tested on: SK-MEL-2
[53] = tested on: SN12C
[54] = tested on: SNB-75
[55] = tested on: MDA-MB-435
[56] = tested on: M14
[57] = tested on: HCC 2998
[58] = tested on: UO-31
[59] = tested on: SF-268

Measured: GI50

C[N+](C)(N)Cc1nc(-c2ccc(Cl)cc2)no1
> 100 µM: [10]
inactive: [1] > 100 µM | [2] > 100 µM | [3] > 100 µM | [4] 75.3 µM | [5] > 100 µM | [6] > 100 µM | [7] 44.2 µM | [8] > 100 µM | [9] > 100 µM | [11] > 100 µM | [12] > 100 µM | [13] > 100 µM | [14] > 100 µM | [15] > 100 µM | [16] 94.8 µM | [17] > 100 µM | [18] > 100 µM | [19] > 100 µM | [20] > 100 µM | [21] > 100 µM | [22] > 100 µM | [23] > 100 µM | [24] > 100 µM | [25] 52.8 µM | [26] > 100 µM | [27] > 100 µM | [28] > 100 µM | [29] > 100 µM | [30] > 100 µM | [31] > 100 µM | [32] 88.9 µM | [33] > 100 µM | [34] > 100 µM | [35] > 100 µM | [36] 20.8 µM | [37] > 100 µM | [38] > 100 µM | [39] > 100 µM | [40] > 100 µM | [41] 22.9 µM | [42] > 100 µM | [43] > 100 µM | [44] > 100 µM | [45] > 100 µM | [46] > 100 µM | [47] 26.8 µM | [48] 37.7 µM | [49] > 100 µM | [50] > 100 µM | [51] 70 µM | [52] > 100 µM | [53] > 100 µM | [54] > 100 µM | [55] > 100 µM | [56] > 100 µM

Cc1c(/C=N/NC(=S)Nc2ccc(Cl)cc2)c(=O)n(-c2ccccc2)n1C
inactive: [57] > 100 µM | [1] 19.8 µM | [2] 32.6 µM | [3] > 34.7 µM | [4] 20.1 µM | [5] 42.7 µM | [6] 14.8 µM | [7] > 100 µM | [8] 7.08 µM | [58] 32.1 µM | [9] 18.7 µM | [11] > 56.5 µM | [12] 24.9 µM | [13] > 71.1 µM | [14] > 47.6 µM | [15] 24.5 µM | [16] > 75.2 µM | [17] 24.8 µM | [18] > 48.5 µM | [19] 16 µM | [20] > 78.5 µM | [21] 9.75 µM | [22] > 100 µM | [23] 15 µM | [24] 33.7 µM | [25] 39.1 µM | [26] > 52.1 µM | [27] 23.6 µM | [28] > 83.6 µM | [29] 17.3 µM | [30] 18.2 µM | [31] > 42 µM | [32] 14.3 µM | [33] > 100 µM | [34] > 100 µM | [35] 16.3 µM | [36] > 60.8 µM | [38] 15.5 µM | [39] 18.4 µM | [40] > 100 µM | [41] 46.6 µM | [59] 15.8 µM | [42] 16.1 µM | [43] 25.4 µM | [45] 24.9 µM | [46] 18.3 µM | [47] 4.93 µM | [48] 22.6 µM | [50] 27.9 µM | [51] 22.5 µM | [52] 21.6 µM | [53] > 82.6 µM | [54] 15.9 µM | [55] > 100 µM | [56] > 62.8 µM
active: [37] 0.637 µM | [49] 0.0258 µM
17.9 µM: [10]

N#CC(=C1CCCCC1)c1nc2ccccc2o1
inactive: [57] 50 µM | [1] 53.1 µM | [3] > 100 µM | [4] 41.4 µM | [5] > 100 µM | [6] > 100 µM | [7] 69.8 µM | [8] 20.6 µM | [58] 47.2 µM | [9] 56.2 µM | [11] > 100 µM | [12] 55.3 µM | [13] 19.6 µM | [14] 32 µM | [15] 52.8 µM | [16] 49.1 µM | [17] 66.8 µM | [18] 68.9 µM | [19] 83 µM | [21] 64.1 µM | [22] > 100 µM | [23] 31.7 µM | [24] 51.1 µM | [25] 25.9 µM | [26] 56.9 µM | [27] > 100 µM | [28] > 100 µM | [29] 40 µM | [30] > 100 µM | [31] 56.5 µM | [32] > 100 µM | [33] 61.5 µM | [34] 74.5 µM | [35] > 100 µM | [36] > 100 µM | [37] > 100 µM | [38] 57.9 µM | [39] > 100 µM | [40] 35.2 µM | [41] 19.4 µM | [59] 55.2 µM | [42] > 100 µM | [43] > 100 µM | [44] 34.5 µM | [45] 47.4 µM | [46] 58.7 µM | [47] 37.9 µM | [48] 34.5 µM | [49] 32.1 µM | [50] > 100 µM | [51] > 100 µM | [52] > 100 µM | [53] > 100 µM | [55] > 100 µM | [56] 80.7 µM
49.4 µM: [10]
